In US9034826B2, “Use of epidermal growth factor for the morphofunctional restoration of peripheral nerves in diabetic neuropathy” (Centro de Ingenieria Genetica y Biotecnologia, priority 2006, dated 2015):

Assays:
Assay type in all cases: in vivo, Wistar rats
[1] = system: diabetic rats; experiment: Motor conduction velocity, sciatic-tibial route, prevention study (Example 1); details: 75 μg EGF/ml, day 60
Experimental: (§1) Male Wistar, with 200-250 grams of body weight, received a subcutaneous injection of streptozotocin, at 75 mg/kg in sodium citrate buffer. Water was then replaced by a 10% sucrose solution during the next 24 h, to prevent deaths caused by hypoglycemia. Glucose levels in blood were monitored every morning during the next 72 hours after the injection. Only animals with sustained glucose values above 15 mmol/L were used. Rats were housing at 4 per cage and fed in the conventional way. A concurrent group of other 80 rats received citrate buffer without streptozotocin and was handled in a similar fashion to the diabetic group. The average value for glycemia during the 72 hours in this group was 5.87 mmol/L.
(§2) All treatments were conducted during 8 weeks, starting one week after streptozotocin injection. The composition used contained 75 μg of human recombinant EGF/ml. Several types of observations were conducted in the animals under study:
Fifteen animals were used in each experimental group. In diabetic neuropathy conduction velocity is generally diminished.
Distal supra-maximal stimulation in the sciatic-tibial route using bipolar electrodes is was used to study motor conduction. Determination of the conduction velocity in the sensory routes was carried out by applying a stimulus at a proximal point in the tail and measure it 3 cm away.

[2] = system: right sciatic nerve; experiment: Laser Doppler Perfusion Imaging of blood perfusion of a peripheral nerve, prevention study (Example 1); details: diabetic rats, 75 μg EGF/ml, two months
Experimental: as §1, §2
The right sciatic nerve of rats was used as a model. Ten animals were included for each one of the experimental groups. A similar number of non diabetic rats were used to calculate the reference values. A Laser Doppler Perfusion Imaging (LDPI) system was used. Data of perfusion in peripheral tissues to the nerve were programmed as zero values. Control animals received saline during two months before the measurement. […]

[3] = system: Lipoprotein Lipase (LPL); experiment: Lipoprotein lipase (LPL) enzymatic activity in sciatic nerve fragments, reversion study (Example 2); details: established diabetic neuropathy, 100 μg EGF in 1 ml i.p. 3 days a week for one month
Experimental: Fragments of the nerve from each animal were incubated together with 3 μg/ml heparin in Krebs-Ringer buffer at 37° C. for 50 minutes. Aliquots from these samples were then incubated in the presence of [^14C] triolein-phosphatidylcholine. ^14C labeled fatty acids were quantified by the classic methods. LPL activity was expressed in nanomoles of released fatty acids (RFA) per minute and gram of tissue.
The aim of this study was to evaluate the neurorestoration effect of the pharmaceutical composition. Male Wistar rats between 200-250 grams of body is weight received a subcutaneous injection of streptozotocin at 75 mg/kg in sodium citrate buffer, and were allowed to evolve until 120 days after disease induction. All rats used in this experiment had shown sustained glucose levels above 15 mmol/L. Animals were handled and fed as previously described. A concurrent control group was set, where animals received saline instead of streptozotocin. […] After this period an electrophysiological characterization of all rats were done and animals were split in two random treatment groups:
Group II. Animals received the pharmaceutical composition with 100 μg of EGF in 1 ml, 3 days a week, by intraperitoneal route.
The aim of this study was to compare the LPL enzymatic activity after one month of treatment with EGF containing composition, as compared to saline treated diabetic animals. […]

[4] = system: diabetic rats; experiment: Nociceptive threshold (NCT) pain test, prevention of diabetic neuropathy (Example 1); details: 75 μg EGF/ml
Experimental: as §1, with “group.” for “group. The average value for glycemia during the 72 hours in this group was 5.87 mmol/L.”
as §2
The pain test, by application of an increasing pressure in the tail, was carried out at days 28 and 56 after initiation of the treatment, using 10 animals per each one of the experimental groups. NCT, expressed in grams, was determined by using an Ugo Basile type analgesimeter to apply a gradually increasing pressure to the tail of the animals until they developed a withdrawal reflex. In human diabetic neuropathy the nociceptive threshold is reduced.

[5] = 1 ml i.p. once weekly (Treatment group 1)
[6] = 1 ml i.p. three times a week (Treatment group 3)

“EGF containing pharmaceutical composition: Composition with human recombinant EGF: 75 μg/ml in Example 1, 100 μg in 1 ml in Example 2, given intraperitoneally” was tested, and the “MCV (motor conduction velocity)” value [1, 5] was 45 ± 13 m/s, the “MCV (motor conduction velocity)” value [1, 6] was 56 ± 11 m/s and the “Laser Doppler perfusion of the sciatic nerve” value [2, 5] was 653.4 ± 41.9 LDPI Units. The “Laser Doppler perfusion of the sciatic nerve” value [2, 6] was 988.7 ± 80.3 LDPI Units, the “LPL activity in the sciatic nerve” value [3] was 6.29 ± 1.67 nmoles AGL/min/g and the NCT ([4]; 1 ml i.p. once weekly (Treatment group 1), day 28) was 125 ± 18 grams. For the same substance, the NCT ([4]; 1 ml i.p. three times a week (Treatment group 3), day 28) was 123 ± 16 grams and the NCT ([4]; 1 ml i.p. three times a week (Treatment group 3), day 56) was 121 ± 22 grams.
